Results taken from ChEMBL document CHEMBL1143423, “In vivo efficacy of moxifloxacin compared with cloxacillin and vancomycin in a Staphylococcus aureus rabbit arthritis experimental model” (Antimicrob Agents Chemother, 2007).
Values after ≈ are worked out from the molar mass of the structure shown.

Assays:
Staphylococcus aureus [1] = test: microbe, parasite or virus in culture
Description: Antibacterial activity against methicillin-resistant Staphylococcus aureus by broth microdilution technique

[2] = Drug level in serum of Staphylococcus aureus infected rabbit arthritis model at 50 mg/kg, im administered thrice a day; assay type: ADME, organism-based, Oryctolagus cuniculus; design: dose 50 mg/kg, route intramuscular; conditions: in vivo
Staphylococcus aureus [3] = test: Antibacterial activity against methicillin-sensitive Staphylococcus aureus by broth microdilution technique; assay type: functional
Staphylococcus aureus [4] = test: Antibacterial activity against methicillin-sensitive Staphylococcus aureus infected rabbit arthritis model assessed as change in bacterial load per gram of synovial fluid at 50 mg/kg, im administered thrice a day after 7 days by broth microdilution technique; assay type: functional; conditions: route intramuscular
[5] = AUC (0 to 24 hrs) in human serum at 400 mg, po administered as single dose; assay type: ADME, organism-based; design: time < 24 hr, dose 400 mg, route oral
[6] = Cmax in Staphylococcus aureus infected rabbit arthritis model at 45 mg/kg, po; assay type: ADME, organism-based, Oryctolagus cuniculus; design: dose 45 mg/kg, route oral; conditions: in vivo
[7] = Cmax in human serum at 400 mg, po administered as single dose; assay type: ADME, organism-based; conditions: read-out: tCmax
[8] = Cmax in human serum at 400 mg, po administered as single dose after 1 hr; assay type: ADME, organism-based; design: dose 400 mg, route oral
[9] = AUC (0 to 24 hrs) in Staphylococcus aureus infected rabbit arthritis model at 45 mg/kg, po; assay type: ADME, organism-based, Oryctolagus cuniculus; design: time < 24 hr, dose 45 mg/kg, route oral; conditions: in vivo
Staphylococcus aureus [10] = test: Antibacterial activity against ciprofloxacin and methicillin-resistant Staphylococcus aureus
[11] = Drug level in serum of Staphylococcus aureus infected rabbit arthritis model at 100 mg/kg, iv administered daily; assay type: ADME, organism-based, Oryctolagus cuniculus; design: dose 100 mg/kg, route intravenous; conditions: in vivo

## Cc1onc(-c2ccccc2Cl)c1C(=O)N[C@@H]1C(=O)N2[C@@H]1SC(C)(C)[C@@H]2C(=O)O [CLOXACILLIN]
Staphylococcus aureus [1]
  MIC: 4 µg/mL (≈ 9.18 µM)
[2]
  Drug uptake: 0.8 mg/L
Staphylococcus aureus [3]
  MIC: 0.5 µg/mL (≈ 1.15 µM)
Staphylococcus aureus [4]
  deltalog10CFU: 4.6

## COc1c(N2C[C@@H]3CCCN[C@@H]3C2)c(F)cc2c(=O)c(C(=O)O)cn(C3CC3)c12 [MOXIFLOXACIN]
Staphylococcus aureus [1]
  MIC: 1 µg/mL (≈ 2.49 µM)
[5]
  AUC(0-t) at 24 h: 35000 ng·h/mL
[6]
  Cmax: 2850 ng/mL
Staphylococcus aureus [3]
  MIC: 0.032 µg/mL (≈ 0.0797 µM)
[7]
  Tmax: 1 h
[8]
  Cmax: 2500 ng/mL
[9]
  AUC(0-t) at 24 h: 37500 ng·h/mL
Staphylococcus aureus [10]
  MIC: 0.25 µg/mL (≈ 0.623 µM)

## CN[C@H](CC(C)C)C(=O)N[C@H]1C(=O)N[C@@H](CC(N)=O)C(=O)N[C@H]2C(=O)N[C@H]3C(=O)N[C@H](C(=O)N[C@H](C(=O)O)c4cc(O)cc(O)c4-c4cc3ccc4O)[C@H](O)c3ccc(c(Cl)c3)Oc3cc2cc(c3O[C@@H]2O[C@H](CO)[C@@H](O)[C@H](O)[C@H]2O[C@H]2C[C@](C)(N)[C@H](O)[C@H](C)O2)Oc2ccc(cc2Cl)[C@H]1O [VANCOMYCIN]
[11]
  Drug uptake: 26.3 mg/L
Staphylococcus aureus [3]
  MIC: 0.032 µg/mL (≈ 0.0221 µM)
